Experimental data published in patent publication US9668960B2, “Methods useful in studying or modulating skin or hair pigmentation, plant extracts for use in compositions and cosmetic care method” (L V M H RECHERCHE, priority 2008, dated 2017).

How the values were obtained:
human Myo-X = test: Knockdown of Myo-X using siRNA in epidermal melanocytes (western blot, immunofluorescence); format: cell-based
Procedure: (§1) Knockdown of Myo-X using siRNA: A synthetic siRNA targeting human Myo-X (5′-[…]-3′) (SEQ ID No 1) and a non-silencing control, consisting of siRNA that has no known homology with mammalian genes (5′-[…]-3′) (SEQ ID No 2) was obtained from Qiagen, Valencia, Calif. A day before siRNA treatment, 5×10^5 epidermal melanocytes per well were plated onto six-well plates at 50-60% confluency and incubated at 37° C. for 12 h. Cells were then treated for 12 h with a final concentration of 25 nM siRNA by using HiPerFect Transfection Reagent (Qiagen, Valencia, Calif.) following the manufacturer's instructions. Fluorescence microscopy was used to verify that approximately 100% of the cells (using non-silencing control labelled with alexa fluor 488 labels) had taken up the siRNA. At 12 h, the cells from each well were replated into 8-well Lab-Tek® chamber slides. For co-culture studies siRNA treated melanocytes were seeded with normal keratinocytes (passage 2) in 8-well Lab-Tek® chamber slides at a cell density of 2×10^4 cells/well and in a ratio of 1 siRNA treated melanocyte to 10 normal keratinocytes. At 24 h the co-culture were processed for double Immunofluorescence staining with gp100 and cytokeratin or Myo-X to study of the influence of gene knockdown on melanosome transfer, and parallel samples were assayed by immunofluorescence staining and western blot analysis to verify gene knockdown. […]

[1] = system: melanosome transfer from melanocytes to keratinocytes; test: Melanosome transfer after knockdown of Myo-X expression in epidermal melanocytes-keratinocytes co-culture; format: cell-based, human; conditions: Myo-X-silenced melanocytes cultured with normal keratinocytes 24 h; vs non-silencing control siRNA
Procedure: as §1, with “keratinocytes.” for “keratinocytes. At 24 h the co-culture were processed for double Immunofluorescence staining with gp100 and cytokeratin or Myo-X to study of the influence of gene knockdown on melanosome transfer, and parallel samples were assayed by immunofluorescence staining and western blot analysis to verify gene knockdown.”
Using this assay the rate of melanosome transfer from melanocytes to keratinocytes with non-silencing control siRNA conditions was determined (FIG. 8). […]

[2] = system: Normal human epidermal melanocytes (F52; p5); test: Melanin assay (melanogenesis) in normal pigmented human melanocytes; format: cell-based; conditions: 72 h
Procedure: Cells were then washed 3-times with sterile PBS and supplemented with 350 μl of either fresh serum-free RPMI medium (melanoma cells) or starved serum-free and BPE-free melanocyte medium (EM) and incubated at 37° C. and 5% CO2 for 24 h. Cells were then washed with sterile PBS 3-times and incubated with IBMX 1×10^-4 M at 37° C. and 5% CO2 for 12, 24, and 72 h. Cells were then gently washed 3-times with sterile PBS and fixed in ice-cold methanol for 10 minutes at -20° C. Slides were stored at -20° C. until immunocytochemistry was performed. […] The melanin standards were pipetted into a 96 well plate to produce a calibration curve for the assessment of melanin content in the test samples. 400 μl of 1 M NaOH was added to each cell pellet and dissolved on a heat block (100° C.) for 15 minutes. The pellets were vortexed vigorously and the solubilized pellet was pipetted into the same 96-well plate. The optical densities of the sample were read at […] on a DYNEX REVELATION 4.02 program. Melanin content of each test sample was read from the calibration curve. […] In addition IBMX and NH4Cl (positive melanocytic modulators) and niacinamide (negative modulator) were used as controls. Visible change was not particularly evident in normal melanocyte due to their already high basal melanin levels (FIG. 1). By contrast, visible change was evident in melanoma cells basal melanin levels were low (FIG. 2). […] Normal human epidermal melanocytes (Female-52; p5) were treated for 72 h with L-18 (0.001%), L-19 (1%), L-20 (0.5%), L-21 (10 μg/ml), L-22 (1%) and L-23 (0.05 μg/ml). Controls: Melanocytic modulators: IBMX (100 μM), NH4Cl (100 μM), and niacinamide (10 μM). (A) Melanin content was determined spectro-photometrically (475 nm) after sodium hydroxide solubilise (B) Visible change was not particularly evident in these cells due to their already high basal melanin levels. Results were expressed as change in melanin content (pg/cell) compared to unstimulated control levels. Means are ±SEM of 3 independent experiments with *P<0.05, **P<0.01, ***P<0.001. NS-Not Significant

FM55 melanoma cells = test: Melanin assay (melanogenesis) in moderately-pigmented FM55 melanoma; format: cell-based, human; conditions: 72 h
Procedure: Cells were then washed 3-times with sterile PBS and supplemented with 350 μl of either fresh serum-free RPMI medium (melanoma cells) or starved serum-free and BPE-free melanocyte medium (EM) and incubated at 37° C. and 5% CO2 for 24 h. Cells were then washed with sterile PBS 3-times and incubated with IBMX 1×10^-4 M at 37° C. and 5% CO2 for 12, 24, and 72 h. Cells were then gently washed 3-times with sterile PBS and fixed in ice-cold methanol for 10 minutes at -20° C. Slides were stored at -20° C. until immunocytochemistry was performed. […] The melanin standards were pipetted into a 96 well plate to produce a calibration curve for the assessment of melanin content in the test samples. 400 μl of 1 M NaOH was added to each cell pellet and dissolved on a heat block (100° C.) for 15 minutes. The pellets were vortexed vigorously and the solubilized pellet was pipetted into the same 96-well plate. The optical densities of the sample were read at […] on a DYNEX REVELATION 4.02 program. Melanin content of each test sample was read from the calibration curve. […] In addition IBMX and NH4Cl (positive melanocytic modulators) and niacinamide (negative modulator) were used as controls. […] Controls: Melanocytic modulators: IBMX (100 μM), NH4Cl (100 μM), and niacinamide (10 μM). (A) Melanin content was determined spectrophotometrically (475 nm) after sodium hydroxide solubilisation. […] (B). Results were expressed as the change in melanin content (pg/cell) compared to unstimulated control levels. Means are ±SEM of 3 independent experiments with *P<0.05, **P<0.01, ***P<0.001.

tyrosinase [3] = test: DOPA oxidase detection for tyrosinase activity in pigmented normal human melanocytes; format: cell-based; conditions: 72 h
Procedure: The cells were prepared for SDS-PAGE and transblotted onto PVDF membranes. 70 μg of un-reduced protein extract without boiling was pipetted into the appropriate wells of 8% SDS-PAGE gels. […] The L-DOPA reaction was stopped by washing the membrane in distilled water and the membrane was scanned. […] In addition IBMX and NH4Cl (positive melanocytic modulators) and niacinamide (negative modulator) were used as controls. […] Normal human epidermal melanocytes (Female-52; p5) were treated for 72 h with L-18 (0.001%), L-19 (1%), L-20 (0.5%), L-21 (10 μg/ml), LVMH-22 (1%) and L-23 (0.05 μg/ml). Controls: Melanocytic modulators: IBMX (100 μM), NH4Cl (100 μM), and niacinamide (10 μM). (A) Protein extracts were electroblotted and membranes stained with L-DOPA for the estimation of tyrosinase activity.

tyrosinase [4] = test: DOPA oxidase detection for tyrosinase activity in FM55 melanoma; format: cell-based, human; conditions: 72 h
Procedure: The cells were prepared for SDS-PAGE and transblotted onto PVDF membranes. 70 μg of un-reduced protein extract without boiling was pipetted into the appropriate wells of 8% SDS-PAGE gels. […] The L-DOPA reaction was stopped by washing the membrane in distilled water and the membrane was scanned. […] In addition IBMX and NH4Cl (positive melanocytic modulators) and niacinamide (negative modulator) were used as controls. […] Controls: Melanocytic modulators: IBMX (100 μM), NH4Cl (100 μM), and niacinamide (10 μM.). (A) Protein extracts were electroblotted and membranes stained with L-DOPA for the estimation of tyrosinase activity. (B) Densitometric scanning of band intensities and values were expressed as the fold increase compared to unstimulated control levels. Means are ±SEM of 3 independent experiments with *P<0.05, **P<0.01, ***P<0.001.

[5] = L-18 0.001%, L-19 1%, L-20 0.5%, L-21 10 μg/ml, L-22 1%, L-23 0.05 μg/ml, IBMX 100 μM, NH4Cl 100 μM, niacinamide 10 μM, vs basal

Question: How did the “expression of Myo-X compared to non-silencing control siRNA” value (human Myo-X; 25 nM siRNA, 12 h, immunofluorescence) turn out when “siRNA targeting human Myo-X: synthetic siRNA targeting human Myo-X (5′-CAGCGGTATAAGAGAAATCAA-3′), obtained from Qiagen (listed as DNA, chemistry not given here; listed as Homo sapiens)” was run?
Answer: almost completely inhibited

Question: What about the “filopodia in Myo-X-silenced melanocytes” value (human Myo-X; anti-gp100 double-immunolabelling) of the same compound?
Answer: absence of filopodia

Question: What about the “melanosome transfer reduced by” value [1] of the same compound?
Answer: 80%

Question: What does the source list for `Cl.N` [NH4Cl]?
Answer: Changes in melanin levels, F52 EM % change [2, 5]: +166.17%; Melanin content, F52 EM (pg/cell) ([2]; same doses as E1, basal 35.63): (94.83) pg/cell; Changes in melanin levels, FM55 % change (FM55 melanoma cells; [5]): +478.82%; Melanin content, FM55 (pg/cell) (FM55 melanoma cells; same doses as E3, basal 9.92): (56.83) pg/cell; effect on melanin content compared with basal levels (FM55 melanoma cells; FM55 melanoma cells, doses as E3): visible increases in melanogenesis; Changes in tyrosinase activity, F52 EMc % change (tyrosinase [3]; [5]): +159.63%; effect on tyrosinase (dopa oxidase) activity compared with basal levels (tyrosinase [3]; normal melanocytes (EM), doses as E5): dramatic increase in dopa oxidase activity of tyrosinase; Changes in tyrosinase activity, FM55 % change (tyrosinase [4]; same doses as E5, vs basal): +408.27%; effect on tyrosinase (dopa oxidase) activity compared with basal levels (tyrosinase [4]; FM55 melanoma cells, doses as E5): dramatic increase in dopa oxidase activity of tyrosinase
